# Legend:
# [1] = molecular target: T1, G12V-mutant human KRAS (amino acid residues 1-188) (Homo sapiens, UniProt P01116, G12V); test: KRAS Binding Competition Assay (AlphaScreen; biotinylated KRpep-2d analogue), G12V; settings: geometric mean, read-out: KRAS GMean IC50 (uM) MUTATION: G12V
# T1 construct: G12V-mutant human KRAS (amino acid residues 1-188) with FLAG tag was purified from E. coli; made in house; host or cells: E. coli
# [2] = molecular target: T2, G12D-mutant human KRAS (amino acid residues 1-188) (Homo sapiens, UniProt P01116, G12D); test: KRAS Binding Disruption Assay (AlphaScreen; biotinylated KRpep-2d analogue or RAF1-RBD), G12D; settings: KRAS G12D; geometric mean; read-out: KRAS GMean IC50 (uM) MUTATION: G12D
# T2 construct: G12D or G12C-mutant human KRAS (amino acid residues 1-188) with FLAG tag; made in house; host or cells: E. coli
# How it was run: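 Mutant KRAS (5-20 nM) incubated 1 h at 25° C with test compound and 5-20 nM biotinylated KRpep-2d analogue or RAF1-RBD in 20 mM HEPES pH 7.5, 100 mM NaCl, 5 mM MgCl2, 0.01% Tween-20, 0.01% BSA.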
IC50 [1],IC50 [2],SMILES
0.0001 to 10 µM,0.0001 to 10 µM,"CN1CC[C@@H](NC(=O)N2CC3CCCC2CN3c2nc(OC[C@@H]3CCCN3C)nc3c(F)c(-c4cc(O)cc5ccccc45)ccc23)C1 (stereo partly drawn) [P-0297, 8-(8-fluoro-7-(3-hydroxynaphthalen-1-yl)-2-(((S)-1-methylpyrrolidin-2-yl)methoxy)quinazolin-4-yl)-N-((R)-1-methylpyrrolidin-3-yl)-6,8-diazabicyclo[3.2.2]nonane-6-carboxamide]"
10 to 100 µM,10 to 100 µM,"CN1CCC[C@H]1COc1nc(N2[C@@H]3CC[C@H]2CN(C(=O)c2ncn[nH]2)C3)c2ccc(-c3cc(O)cc4ccccc34)cc2n1 [P-0230, ((1R,5S)-8-(7-(3-hydroxynaphthalen-1-yl)-2-(((S)-1-methylpyrrolidin-2-yl)methoxy)quinazolin-4-yl)-3,8-diazabicyclo[3.2.1]octan-3-yl)(1H-1,2,4-triazol-5-yl)methanone]"
10 to 100 µM,0.0001 to 10 µM,"CN1CCC[C@H]1COc1nc(N2[C@@H]3CC[C@H]2CN(C(=O)NC2CN4CCC2CC4)C3)c2ccc(-c3cc(O)cc4ccccc34)cc2n1 (stereo partly drawn) [P-0208, (1R,5S)-8-(7-(3-hydroxynaphthalen-1-yl)-2-(((S)-1-methylpyrrolidin-2-yl)methoxy)quinazolin-4-yl)-N-(quinuclidin-3-yl)-3,8-diazabicyclo[3.2.1]octane-3-carboxamide]"
10 to 100 µM,0.0001 to 10 µM,"CN1CCC[C@H]1COc1nc(N2C[C@H]3CC[C@@H](C2)N3C(=N)N)c2ccc(-c3cc(O)cc4ccccc34)c(F)c2n1 [P-0468, (1R,5S)-3-(8-fluoro-7-(3-hydroxynaphthalen-1-yl)-2-(((S)-1-methylpyrrolidin-2-yl)methoxy)quinazolin-4-yl)-3,8-diazabicyclo[3.2.1]octane-8-carboximidamide]"
0.0001 to 10 µM,0.0001 to 10 µM,"CN(C)CCCS(=O)(=O)N1[C@@H]2CC[C@H]1CN(c1nc(OCC34CCCN3CCC4)nc3c(F)c(-c4cc(O)cc5ccccc45)ccc13)C2 [P-0287, 4-(4-((1R,5S)-8-((3-(dimethylamino)propyl)sulfonyl)-3,8-diazabicyclo[3.2.1]octan-3-yl)-8-fluoro-2-((tetrahydro-1H-pyrrolizin-7a(5H)-yl)methoxy)quinazolin-7-yl)naphthalen-2-ol]"
10 to 100 µM,10 to 100 µM,"CN1CCC[C@H]1COc1nc(N2[C@@H]3CC[C@H]2CN(C(=O)Cn2ccnc2)C3)c2ccc(-c3cc(O)cc4ccccc34)cc2n1 [P-0207, 1-((1R,5S)-8-(7-(3-hydroxynaphthalen-1-yl)-2-(((S)-1-methylpyrrolidin-2-yl)methoxy)quinazolin-4-yl)-3,8-diazabicyclo[3.2.1]octan-3-yl)-2-(1H-imidazol-1-yl)ethan-1-one]"
100 to 1000 µM,10 to 100 µM,"CC(C)(C)c1ccc2[nH]cc(-c3ccc4c(N5C[C@H]6CC[C@@H](C5)N6)nc(OCC56CCCN5CCC6)nc4c3F)c2c1 [P-0611, 4-((1R,5S)-3,8-diazabicyclo[3.2.1]octan-3-yl)-7-(5-(tert-butyl)-1H-indol-3-yl)-8-fluoro-2-((tetrahydro-1H-pyrrolizin-7a(5H)-yl)methoxy)quinazoline]"
10 to 100 µM,10 to 100 µM,"CN1CCC[C@H]1COc1nc(N2[C@@H]3CC[C@H]2CN(C(=O)C(=O)Nc2ccccn2)C3)c2ccc(-c3cc(O)cc4ccccc34)cc2n1 [P-0229, 2-((1R,5S)-8-(7-(3-hydroxynaphthalen-1-yl)-2-(((S)-1-methylpyrrolidin-2-yl)methoxy)quinazolin-4-yl)-3,8-diazabicyclo[3.2.1]octan-3-yl)-2-oxo-N-(pyridin-2-yl)acetamide]"
0.0001 to 10 µM,0.0001 to 10 µM,"CN1CCN(CCNS(=O)(=O)N2[C@@H]3CC[C@H]2CN(c2nc(OCC45CCCN4CCC5)nc4c(F)c(-c5cc(O)cc6ccccc56)ccc24)C3)CC1 [P-0281, (1R,5S)-3-(8-fluoro-7-(3-hydroxynaphthalen-1-yl)-2-((tetrahydro-1H-pyrrolizin-7a(5H)-yl)methoxy)quinazolin-4-yl)-N-(2-(4-methylpiperazin-1-yl)ethyl)-3,8-diazabicyclo[3.2.1]octane-8-sulfonamide]"
10 to 100 µM,0.0001 to 10 µM,"CCCc1nc(N2C[C@H]3CC[C@@H](C2)N3)c2ccc(-c3cc(O)cc4ccccc34)c(F)c2n1 [P-0455, 4-(4-((1R,5S)-3,8-diazabicyclo[3.2.1]octan-3-yl)-8-fluoro-2-propylquinazolin-7-yl)naphthalen-2-ol]"
10 to 100 µM,10 to 100 µM,"CN1CCC[C@H]1COc1nc(N2[C@@H]3CC[C@H]2CN(C(=O)NO)C3)c2ccc(-c3cc(O)cc4ccccc34)cc2n1 [P-0213, (1R,5S)-N-hydroxy-8-(7-(3-hydroxynaphthalen-1-yl)-2-(((S)-1-methylpyrrolidin-2-yl)methoxy)quinazolin-4-yl)-3,8-diazabicyclo[3.2.1]octane-3-carboxamide]"
10 to 100 µM,0.0001 to 10 µM,"Oc1cc(-c2ccc3c(N4CC5CCC(C4)N5)nc(OCC4CCC(O)C4)nc3c2F)c2ccccc2c1 [P-0622, 4-(4-((1R,5S)-3,8-diazabicyclo[3.2.1]octan-3-yl)-8-fluoro-2-((3-hydroxycyclopentyl)methoxy)quinazo-lin-7-yl)naphthalen-2-ol]"
10 to 100 µM,10 to 100 µM,"CN1CCN(CCNC(=O)N2[C@@H]3CC[C@H]2CN(c2nc(OCC4CCCN4C)nc4c(F)c(-c5cc(O)cc6ccccc56)ccc24)C3)CC1 (stereo partly drawn) [P-0416, (1R,5S)-3-(8-fluoro-7-(3-hydroxynaphthalen-1-yl)-2-((1-methylpyrrolidin-2-yl)methoxy)quinazolin-4-yl)-N-(2-(4-methylpiperazin-1-yl)ethyl)-3,8-diazabicyclo[3.2.1]octane-8-carboxamide]"
100 to 1000 µM,10 to 100 µM,"CN1CCC[C@H]1COc1nc(N2C[C@H]3CC[C@@H](C2)N3)c2cnc(N3CC(=O)Nc4cccc(Cl)c43)c(F)c2n1 [P-0444, 4-(4-((1R,5S)-3,8-diazabicyclo[3.2.1]octan-3-yl)-8-fluoro-2-(((S)-1-methylpyrrolidin-2-yl)methoxy)pyrido[4,3-d]pyrimidin-7-yl)-5-chloro-3,4-dihydroquinoxalin-2(1H)-one]"
0.0001 to 10 µM,0.0001 to 10 µM,"Cc1cccc2cc(O)cc(-c3ccc4c(N5C[C@H]6CC[C@@H](C5)N6)nc(OC[C@@H]5CCCN5C)nc4c3F)c12 [P-0073, 4-(4-((1R,5S)-3,8-diazabicyclo[3.2.1]octan-3-yl)-8-fluoro-2-(((S)-1-methylpyrrolidin-2-yl)methoxy)quinazolin-7-yl)-5-methylnaphthalen-2-ol]"
10 to 100 µM,0.0001 to 10 µM,"CN1CCC[C@H]1COc1nc(N2C[C@H]3CC[C@@H](C2)N3S(=O)(=O)N[C@@H]2CCNC2)c2ccc(-c3cc(O)cc4ccccc34)c(F)c2n1 [P-0405, (1R,5S)-3-(8-fluoro-7-(3-hydroxynaphthalen-1-yl)-2-(((S)-1-methylpyrrolidin-2-yl)methoxy)quinazolin-4-yl)-N-((R)-pyrrolidin-3-yl)-3,8-diazabicyclo[3.2.1]octane-8-sulfonamide]"
100 to 1000 µM,10 to 100 µM,"Cc1cccc2c(Nc3ccc4c(N5C[C@H]6CC[C@@H](C5)N6)nc(OC[C@@H]5CCCN5C)nc4c3F)n[nH]c12 [P-0437, 4-((1R,5S)-3,8-diazabicyclo[3.2.1]octan-3-yl)-8-fluoro-N-(7-methyl-1H-indazol-3-yl)-2-(((S)-1-methylpyrrolidin-2-yl)methoxy)quinazolin-7-amine]"
100 to 1000 µM,10 to 100 µM,"CN1CCC[C@H]1COc1nc(N2[C@@H]3CC[C@H]2CN(C(=O)C2CCC(=O)N2)C3)c2ccc(-c3cc(O)cc4ccccc34)cc2n1 (stereo partly drawn) [P-0222, 5-((1R,5S)-8-(7-(3-hydroxynaphthalen-1-yl)-2-(((S)-1-methylpyrrolidin-2-yl)methoxy)quinazolin-4-yl)-3,8-diazabicyclo[3.2.1]octane-3-carbonyl)pyrrolidin-2-one]"
0.0001 to 10 µM,0.0001 to 10 µM,"Cc1[nH][nH]c(=O)c1CC(=O)N1[C@@H]2CC[C@H]1CN(c1nc(OCC34CCCN3CCC4)nc3c(F)c(-c4cc(O)cc5ccccc45)ccc13)C2 [P-0388, 4-(2-((1R,5S)-3-(8-fluoro-7-(3-hydroxynaphthalen-1-yl)-2-((tetrahydro-1H-pyrrolizin-7a(5H)-yl)methoxy)quinazolin-4-yl)-3,8-diazabicyclo[3.2.1]octan-8-yl)-2-oxoethyl)-5-methyl-1,2-dihydro-3H-pyrazol-3-one]"
10 to 100 µM,100 to 1000 µM,"CN1CCC[C@H]1COc1nc(N2C[C@H]3CC[C@@H](C2)N3)c2ccc(-c3c[nH]c4ncccc34)cc2n1 [P-0175, 4-((1R,5S)-3,8-diazabicyclo[3.2.1]octan-3-yl)-2-(((S)-1-methylpyrrolidin-2-yl)methoxy)-7-(1H-pyrrolo[2,3-b]pyridin-3-yl)quinazoline]"
10 to 100 µM,10 to 100 µM,"CN1CCC[C@H]1COc1nc(N2[C@@H]3CC[C@H]2CN(CC(=O)Nc2ccccn2)C3)c2ccc(-c3cc(O)cc4ccccc34)cc2n1 [P-0225, 2-((1R,5S)-8-(7-(3-hydroxynaphthalen-1-yl)-2-(((S)-1-methylpyrrolidin-2-yl)methoxy)quinazolin-4-yl)-3,8-diazabicyclo[3.2.1]octan-3-yl)-N-(pyridin-2-yl)acetamide]"
100 to 1000 µM,100 to 1000 µM,"CN1CCC[C@H]1COc1nc(N2C[C@H]3CC[C@@H](C2)N3)c2ccc(-c3ccc4c(c3)NC(=O)CO4)cc2n1 [P-0159, 6-(4-((1R,5S)-3,8-diazabicyclo[3.2.1]octan-3-yl)-2-(((S)-1-methylpyrrolidin-2-yl)methoxy)quinazolin-7-yl)-2H-benzo[b][1,4]oxazin-3(4H)-one]"
